The results in this text go back to paper PMC12271471, “Direct synthesis of mycophenolic acid aryl esters with antioxidant and antiproliferative properties” (Scientific Reports, 2025).

For the assay, the system named is AsPC-1 cells (human pancreatic cancer cells). The assay is described as follows: MTT cytotoxicity assay on AsPC-1 cell line. The format is cell-based. Conditions: ASPC1, 72 h treatment, n = 3, mean ± SD. How it is done: Table 2 presents the concentration of the tested compounds, namely: P4, P7, MP9, MPA, MMF, and gemcitabine (GEM; a standard), which inhibited the proliferation of AsPC-1 cells (human pancreatic cancer cells) by 50% (expressed as IC50 values) compared to the control. Cells were treated with compounds for 72 h and then a colorimetric MTT assay was performed. A graphical representation of these values can be seen in ESI Fig. S1.
Biological evaluation — AsPC-1 cell line
AsPC-1 pancreatic cancer cells (purchased from the American Type Culture Collection, ATCC, Manassas, VA, USA) were maintained in RPMI 1640 medium (Sigma-Aldrich, St Louis, MO, USA), supplemented with heat-inactivated 10% fetal bovine serum (FBS; Biowest, Riverside, MO, USA), 100 µg/mL streptomycin, and 100 units/mL penicillin. Cells were incubated in a humidified atmosphere of 5% CO2 at 37°C. All experiments were performed on cells in a logarithmic growth phase.
To investigate the effect of the tested compounds on cell viability, a colorimetric analysis was performed using MTT (3-(4,5-Dimethyl-2-thiazolyl)-2,5-diphenyl-2H-tetrazolium bromide, Sigma-Aldrich, St Louis, MO, USA) based on the reduction of this yellow salt in metabolically active cells to purple formazan crystals. Cells were seeded onto 96-well plates at 2∙10^3 cells/well and after 24 h incubation for cell attachment, cells were treated with various concentrations of tested compounds and gemcitabine (positive control) up to 50 µM. After 72 hours of incubation, 20 µL MTT at a concentration of 4 mg/mL was added to each well for 3-4 hours. The culture medium was then aspirated and formazan crystals were dissolved in DMSO. The absorbance of the solutions was measured at 540 nm using an iMark Microplate Absorbance Reader (Bio-Rad, Hercules, CA, USA). The drug concentrations required to inhibit cell growth by 50% (IC50) compared to untreated control cells were determined from curves plotting survival as a function of dose. Results were obtained from at least three independent […]
Statistical analysis of MTT cytotoxicity assay results was performed using GraphPad Prism 5.0 by two-tailed unpaired Student’s t-test. Differences p < 0.05 between MPA and its derivatives and gemcitabine were considered statistically significant according to the following criteria: * p < 0.05, ** p <
Regarding `COC(=O)/C=C/c1ccccc1OC(=O)CC/C(C)=C/Cc1c(O)c2c(c(C)c1OC)COC2=O` [P4], the IC50 (usually the point on the concentration scale where inhibition reaches its midpoint) is 2.87 µM.

For the compound `COc1c(C)c2c(c(O)c1C/C=C(\C)CCC(=O)Oc1ccc(CCC(C)=O)cc1)C(=O)OC2` [P7], half-maximal inhibition (IC50) required 2.45 µM.

`COc1c(C)c2c(c(O)c1C/C=C(\C)CCC(=O)OCCN1CCOCC1)C(=O)OC2` [MMF, mycophenolate mofetil, reference compound]: the IC50 turned out to be 2.03 ± 0.042 µM.

In turn, `C/C=C/c1ccc(OC(=O)CC/C(C)=C/Cc2c(O)c3c(c(C)c2OC)COC3=O)c(OC)c1` [MP9] yielded an IC50 of 3.81 µM.

`COc1c(C)c2c(c(O)c1C/C=C(\C)CCC(=O)O)C(=O)OC2` [MPA, Mycophenolic acid] came in with an IC50 of 1.74 ± 0.259 µM.
